Results on 16 molecules are retold here after PubChem BioAssay (NCI).

Assay in all cases: inhibition of tumour cell growth, NCI panel, 48 h
Test [1] relates to DLD-1 colon.
Test [2] has as its system KM20L2 colon.
Test [3] relates to LXFL 529 NSCLC.
Test [4] concerns RXF-631 renal.
In test [5] the test system is SNB-78 CNS.
The test system of test [6] is XF 498 CNS.
The subject of test [7] is DMS 273 small cell lung.
Test [8] concerns HOP-18 NSCLC.
In test [9] the test system is MDA-N.

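Briefly, cells in 96-well plates were exposed to five compound concentrations for 48 h, and endpoints were estimated by linear interpolation. GI50: concentration for 50% inhibition of growth. Definition used: TGI = concentration required for complete inhibition of growth.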

As for `CCc1cccc(C)c1NC(=O)C1=C(C)NC(C)=C(C(=O)Nc2c(C)cccc2CC)C1c1ccc2c(c1)OCO2`, the TGI is 47.5 µM in [1]; 62.8 µM in test [2]; 39.9 µM in test [3]; 54 µM in test [4]; > 100 µM in [5]; 31 µM in test [6].

Regarding `COc1cccc(NC(=O)CC(=O)N2N=C(n3ccc4ccccc43)CC2c2ccccc2)c1` (configuration not stated), the TGI in test [1], in test [7], in [8], in test [2], in test [3] and in test [5] was > 100 µM each time.

In the case of `CC(=O)O[C@H]1CCC2[C@@H]3CCC4c5nonc5CC[C@]4(C)C3CC[C@@]21C` (some centres not stated), the TGI was > 10 µM in test [1]; > 10 µM in test [7]; > 10 µM in [8]; > 10 µM in [2]; > 10 µM in test [3]; > 100 µM in [5]. For the same molecule, in [5], the GI50 was > 100 µM.

In the case of `C[CH2][Sn]([CH2]C)([O]C(=O)c1ccccc1F)[O][Sn]([CH2]C)([CH2]C)[O]C(=O)c1ccccc1F`, the GI50 was 18.4 µM in [1]; > 62.6 µM in [7]; 22.7 µM in [8]; > 51.2 µM in test [2]; 9.79 µM in [3]; 18.7 µM in test [5]. For the same molecule, the GI50 in [6] was 16.1 µM. Moreover, the TGI in [1] was 54.7 µM; in [7], > 100 µM; in test [8], 51.6 µM; in [2], > 77.9 µM; in test [3] it was 22.1 µM; in test [5] it was 46.7 µM. The molecule further had a TGI in test [6] of 29.9 µM.

For `Nc1nc(-c2ccco2)cc(-c2ccc(CO)o2)n1`, the TGI in test [7], in test [2], in [3], in test [5] and in test [6] was > 100 µM throughout.

On to `O=C(NC(=Nc1ccccc1)SCCSC(=Nc1ccccc1)NC(=O)c1cccs1)c1cccs1`, for which the TGI in [1], in test [7], in test [2], in test [3] and in test [6] was > 100 µM in each case.

On to `NC(=O)NC12CC3CC(CC(F)(C3)C1)C2`, for which the TGI in [1], in [7], in [2], in test [3], in test [4] and in [5] was > 100 µM each time. For the same molecule, the TGI in test [6] was > 100 µM.

Consider `O=[N+]([O-])c1cc(Cl)cnc1Br`, for which the TGI in [9] worked out at 12.4 µM.

For the molecule `O=S(=O)(/C=C/CS(=O)(=O)c1ccccc1)c1ccccc1`, the TGI in test [1] is > 100 µM; in [7], > 100 µM; in test [8], > 100 µM; in test [2], 74.2 µM; in [3], > 100 µM; in test [4], 52.8 µM. The TGI came out at 89.9 µM in test [5] and 62.6 µM in [6].

As to `COc1cc2c(cc1OC)[C@@H](Nc1ccc(F)cc1)C1COC(=O)[C@@H]1C2c1cc(OC)c(O)c(OC)c1` (some centres not stated), the TGI in test [1] is 40.5 µM; in test [7], 8.41 µM; in [8], > 100 µM; in [2], > 54.2 µM; in test [3], > 100 µM; in test [4], > 82.7 µM. In addition, the TGI is 97.5 µM in [5] and > 24.7 µM in test [6].

On to `NCCN.O=C([O-])CN1CCOCC1.[OH-].[Pt+4]`, for which, in test [9], the GI50 was > 100 µM and the TGI is > 100 µM.

For `O=c1cc(-c2cccnc2)[nH]c2cc3c(cc12)OCO3`, the TGI was > 100 µM in test [1]; > 100 µM in test [7]; 84.1 µM in test [8]; 26.8 µM in test [3]; 5.71 µM in test [9]; > 100 µM in test [5]. In [6], the TGI came to 72.7 µM.

For the molecule `O=C1C(c2cnc3ccccc3n2)=C(O)c2ccccc21`, the TGI in [1], in test [7], in test [2], in test [3], in test [9] and in test [4] was > 100 µM in each case. Further, in test [5], the TGI was > 100 µM.

Consider `O=C(N/C(=C\c1ccc(/C=C(\NC(=O)c2ccccc2)c2nc3ccccc3[nH]2)cc1)c1nc2ccccc2[nH]1)c1ccccc1`, for which the TGI in [1], in [7], in [8], in test [2], in [3] and in [5] was > 100 µM throughout. For the same molecule, the TGI in test [6] was > 100 µM.

Turning to `OCCn1cnc2c(SCc3ccccc3)ncnc21`, in test [9], the TGI is > 100 µM.

For the molecule `O=C(O)C(CS)NCc1c2ccccc2nc2ccccc12` (configuration not stated), the TGI in test [1] was > 100 µM; in [7], 91.3 µM; in [2], > 100 µM; in test [3], > 100 µM; in [4], > 100 µM; in test [6], 53.7 µM.
